# Laboratory results published in publication PMC7029851, “Antibacterial activity of novel dual bacterial DNA type II topoisomerase inhibitors” (PLoS ONE, 2020).
# Counter-ions that a name gives are not always drawn. Like-named read-outs stand apart in the source and are kept apart here.
# Columns and labels:
# [1] = test system: E. faecalis clinical isolates (n = 12) vanA (6)/vanB (6); experiment: MIC, multidrug-resistant clinical isolates; type: cell-based; details: for MIC: read-out: MIC range
# Method: (§1) The bacterial reference strains used in this study were purchased from ATCC (American Type Culture Collection) via LGC Standards (Middlesex, UK). […] Clinical MDR isolates were provided by Aptuit, the IHMA Europa Sàrl repository (Epalinges, Switzerland) and the Statens Serum Institute (Copenhagen, Denmark).
# (§2) MICs were determined by the broth microdilution method (the agar dilution method was used only for N. gonorrhoeae) according to CLSI guidelines.
# (§3) The results obtained using clinical isolates are reported as MIC50 and MIC90 values.
# [2] = test system: E. faecium clinical isolates (n = 12) vanA (6)/vanB (6); experiment: MIC, multidrug-resistant clinical isolates; type: cell-based; details: for MIC: read-out: MIC range
# Method: as §1, §2, §3
# [3] = test system: S. aureus clinical isolates (n = 10); experiment: microbe, parasite or virus in culture; type: cell-based, Staphylococcus aureus
# Method: as §1, §2, §3
# [4] = test system: C. difficile clinical isolates (n = 21); experiment: MIC, multidrug-resistant clinical isolates; type: cell-based, Clostridium difficile; details: Clostridioides difficile; for MIC: read-out: MIC range
# Method: as §1, §2, §3
# [5] = test system: E. coli clinical isolates (n = 36); experiment: MIC, multidrug-resistant clinical isolates; type: cell-based, Escherichia coli; details: E. coli MDR clinical isolates (n = 36)
# Method: as §1, §2, §3
# [6] = test system: S. aureus ATCC BAA-1720; experiment: Time-kill assay; type: cell-based, Staphylococcus aureus; details: 1× to 4× MIC, over 24 hours
# Method: Time-kill experiments were performed according to the procedure reported by Knapp. […] A drug-free control was included in each experiment. The bacterial cultures were standardized to obtain an initial inoculum that ranged from 5×10^5 to 5×10^6 CFU/ml. The cultures were incubated at 37°C in a shaking bath. At 0, 2, 4, 8 and 24-hour intervals, viable counts were performed by spotting (in triplicate) 10 μl aliquots of suitable dilutions of the cultures onto Mueller-Hinton agar (MHA, Oxoid, Basingstoke, UK) plates. After incubation at 37°C for 24 hours, the bactericidal activity, namely, the ability to reduce the initial inoculum by 3 log10 CFU/ml, was assessed for each tested concentration over time.
# [7] = test system: S. aureus ATCC 29213; experiment: Minimal bactericidal concentration; type: cell-based, Staphylococcus aureus; details: Staphylococcus aureus, ATCC29213, ≥99.9% reduction of inoculum
# Method: (§4) Minimal bactericidal concentrations (MBCs) were determined according to the procedure described by Knapp. Viable counts were performed after plates were incubated at 37°C for 24 hours. The MBC was defined as the lowest concentration that reduced the viability of the initial bacterial inoculum by ≥99.9%.
# [8] = test system: S. aureus BAA-1720; experiment: Minimal bactericidal concentration; type: cell-based, Staphylococcus aureus; details: Staphylococcus aureus, BAA1720, ≥99.9% reduction of inoculum
# Method: as §4
# [9] = test system: E. coli ATCC 25922; experiment: Minimal bactericidal concentration; type: cell-based, Escherichia coli; details: Escherichia coli, ATCC25922, ≥99.9% reduction of inoculum
# Method: as §4
# [10] = test system: S. aureus ATCC 29213; experiment: Post-antibiotic effect (PAE); type: cell-based, Staphylococcus aureus
# Method: A drug-free control was included in each experiment. After being exposed to the drug for 1 hour, viable counts were conducted in triplicate by spotting aliquots (10 μl) of suitable dilutions onto MHA plates. The drugs were removed by diluting the bacterial cultures (1:1000) in Cation-Adjusted Mueller-Hinton Broth (CAMHB; Sigma-Aldrich). The diluted cultures were incubated in a shaking bath at 37°C. To monitor the ongoing suppression of bacterial growth over time (5 hours), aliquots from each broth culture were periodically collected, diluted and plated to perform subsequent viable counts (in triplicate).
# [11] = test system: A. baumannii clinical isolates (n = 10); experiment: microbe, parasite or virus in culture; type: cell-based, Acinetobacter baumannii; details: Acinetobacter baumannii
# Method: as §1, §2, §3
# [12] = test system: C. difficile ATCC 700057; experiment: MIC, broth microdilution; type: cell-based, Clostridium difficile; details: Clostridioides difficile, ATCC700057
# Method: MICs were determined by the broth microdilution method (the agar dilution method was used only for N. gonorrhoeae) according to CLSI guidelines. […] The MIC values of antibiotics used in clinical practice were interpreted according to the susceptibility interpretive criteria reported in the appropriate CLSI Tables (M100-S25, CLSI, 2015).
# [13] = test system: N. gonorrhoeae clinical isolates (n = 38); experiment: microbe, parasite or virus in culture; type: cell-based, Neisseria gonorrhoeae
# Method: as §1, §2, §3
# [14] = E. faecalis clinical isolates (n = 12), vanA (6)/vanB (6)
# [15] = E. faecium clinical isolates (n = 12), vanA (6)/vanB (6)
# [16] = Escherichia coli, read-out: MIC50
# [17] = Escherichia coli, read-out: MIC90
# [18] = C. difficile clinical isolates (n = 21), read-out: MIC50
# [19] = C. difficile clinical isolates (n = 21), read-out: MIC90
# [20] = C. difficile clinical isolates (n = 21)
compound,measurement,setting,value
"CN[C@H](CC(C)C)C(=O)N[C@H]1C(=O)N[C@@H](CC(N)=O)C(=O)N[C@H]2C(=O)N[C@H]3C(=O)N[C@H](C(=O)N[C@H](C(=O)O)c4cc(O)cc(O)c4-c4cc3ccc4O)[C@H](O)c3ccc(c(Cl)c3)Oc3cc2cc(c3O[C@@H]2O[C@H](CO)[C@@H](O)[C@H](O)[C@H]2O[C@H]2C[C@](C)(N)[C@H](O)[C@H](C)O2)Oc2ccc(cc2Cl)[C@H]1O [vancomycin, vancomycin hydrochloride, reference compound]",MIC50,[1]; Enterococcus faecalis,> 64 µg/mL
same,MIC90,[1]; Enterococcus faecalis,> 64 µg/mL
same,MIC50,[2]; Enterococcus faecium,> 64 µg/mL
same,MIC90,[2]; Enterococcus faecium,> 64 µg/mL
same,MIC,[2]; Enterococcus faecium,> 64 µg/mL
same,MIC range,[3]; S. aureus MDR clinical isolates (n = 10),1 to 4 µg/mL
same,MIC50,[3]; Staphylococcus aureus,1 µg/mL
same,MIC90,[3]; Staphylococcus aureus,2 µg/mL
same,MIC50,[4],2 µg/mL
same,MIC90,[4],2 µg/mL
same,MIC,[4],1 to 2 µg/mL
teicoplanin [reference compound],MIC50,[1]; [14],>64 µg/mL
same,MIC90,[1]; [14],>64 µg/mL
same,MIC50,[2]; [15],1 µg/mL
same,MIC90,[2]; [15],64 µg/mL
"CC1(C)S[C@@H]2[C@H](NC(=O)[C@H](N)c3ccccc3)C(=O)N2[C@H]1C(=O)O [ampicillin, reference compound]",MIC50,[1]; Enterococcus faecalis,2 µg/mL
same,MIC90,[1]; Enterococcus faecalis,2 µg/mL
same,MIC,[1]; Enterococcus faecalis,1 to 4 µg/mL
same,MIC50,[2]; Enterococcus faecium,> 64 µg/mL
same,MIC90,[2]; Enterococcus faecium,> 64 µg/mL
same,MIC,[2]; Enterococcus faecium,> 64 µg/mL
same,MIC50,[5]; [16],> 64 µg/mL
same,MIC90,[5]; [17],> 64 µg/mL
"O=C(O)c1cn(C2CC2)c2cc(N3CCNCC3)c(F)cc2c1=O [ciprofloxacin, Ciprofloxacin hydrochloride, reference compound]",Bactericidal activity in time-kill (reduction of 3 log10 CFU/ml),[6],no bactericidal effect
same,MBC,[7],1 µg/mL
same,MBC,[8],256 µg/mL
same,MBC,[9],0.016 µg/mL
same,PAE,[10]; 1-hour exposure at 1× and 4× MIC,25 min
same,PAE,[10]; 1-hour exposure at 16× MIC,35 min
"C[C@@H](O)[C@H]1C(=O)N2C(C(=O)O)=C(S[C@@H]3CN[C@H](C(=O)N(C)C)C3)[C@H](C)[C@H]12 [meropenem, reference compound]",MIC50,[11],8 µg/mL
same,MIC90,[11],≥ 8 µg/mL
"CNC(C)C1CCC(N)C(OC2C(N)CC(N)C(OC3OCC(C)(O)C(NC)C3O)C2O)O1 (stereo not drawn) [gentamicin, gentamicin sulfate]",MIC50,[5]; [16],2 µg/mL
same,MIC90,[5]; [17],32 µg/mL
"CCC[C@@H]1C[C@@H](C(=O)N[C@@H]([C@H]2O[C@H](SC)[C@H](O)[C@@H](O)[C@H]2O)[C@H](C)Cl)N(C)C1 [clindamycin, clindamycin hydrochloride, reference compound]",MIC50,[4]; [18],8 µg/mL
same,MIC90,[4]; [19],32 µg/mL
same,MIC,[4]; [20],4 to 32 µg/mL
colistin sulfate,MIC50,[5],0.5 µg/mL
same,MIC90,[5],0.5 µg/mL
"CC(=O)NC[C@H]1CN(c2ccc(N3CCOCC3)c(F)c2)C(=O)O1 [linezolid, reference compound]",MIC50,[1]; Enterococcus faecalis,2 µg/mL
same,MIC90,[1]; Enterococcus faecalis,2 µg/mL
same,MIC,[1]; Enterococcus faecalis,1 to 2 µg/mL
same,MIC50,[2]; Enterococcus faecium,2 µg/mL
same,MIC90,[2]; Enterococcus faecium,2 µg/mL
same,MIC,[2]; Enterococcus faecium,2 µg/mL
"Cc1ncc([N+](=O)[O-])n1CCO [metronidazole, reference compound]",MIC50,[4]; [18],0.5 µg/mL
same,MIC90,[4]; [19],1 µg/mL
same,MIC,[4]; [20],0.25 to 2 µg/mL
same,MIC,[12],0.25 µg/mL
"C[C@@H](O)[C@H]1C(=O)N2C(C(=O)O)=C(SCCN=CN)C[C@H]12 [imipenem, imipenem monohydrate, reference compound]",MIC,[5]; Escherichia coli,0.06 to 16 µg/mL
same,MIC50,[5]; [16],0.12 µg/mL
same,MIC90,[5]; [17],4 µg/mL
same,MIC50,[4]; [18],8 µg/mL
same,MIC90,[4]; [19],16 µg/mL
same,MIC,[4]; [20],2 to 16 µg/mL
"CO/N=C(\C(=O)N[C@@H]1C(=O)N2C(C(=O)O)=C(CSc3nc(=O)c(=O)[nH]n3C)CS[C@H]12)c1csc(N)n1 [ceftriaxone, ceftriaxone sodium, reference compound]",MIC range,[13],≤0.002 to 0.12 µg/mL
same,MIC50,[13]; Neisseria gonorrhoeae,0.012 µg/mL
same,MIC90,[13]; Neisseria gonorrhoeae,0.094 µg/mL
same,MIC range,[5],0.03 to 32 µg/mL
same,MIC50,[5]; [16],1 µg/mL
same,MIC90,[5]; [17],32 µg/mL
"CN(C)[C@@H]1C(O)=C(C(N)=O)C(=O)[C@@]2(O)C(O)=C3C(=O)c4c(O)cccc4[C@@](C)(O)[C@H]3C[C@@H]12 [tetracycline, tetracycline hydrochloride]",MIC50,[5]; [16],16 µg/mL
same,MIC90,[5]; [17],> 64 µg/mL
"CC1(C)S[C@@H]2[C@H](NC(=O)Cc3ccccc3)C(=O)N2[C@H]1C(=O)O [penicillin, penicillin G potassium, reference compound]",MIC50,[1]; Enterococcus faecalis,4 µg/mL
same,MIC90,[1]; Enterococcus faecalis,8 µg/mL
same,MIC,[1]; Enterococcus faecalis,2 to 16 µg/mL
same,MIC50,[2]; Enterococcus faecium,> 64 µg/mL
same,MIC90,[2]; Enterococcus faecium,> 64 µg/mL
same,MIC,[2]; Enterococcus faecium,> 64 µg/mL
C[C@H]1COc2c(N3CCN(C)CC3)c(F)cc3c(=O)c(C(=O)O)cn1c23 [levofloxacin],MIC range,[5],0.03 to 32 µg/mL
same,MIC50,[5]; [16],4 µg/mL
same,MIC90,[5]; [17],16 µg/mL
"CCc1c(Cl)c(O)c(Cl)c(O)c1C(=O)O[C@H]1[C@H](O)[C@H](OC)[C@H](OC/C2=C\C=C\C[C@H](O)/C(C)=C/[C@H](CC)[C@@H](O[C@@H]3OC(C)(C)[C@@H](OC(=O)C(C)C)[C@H](O)[C@@H]3O)/C(C)=C/C(C)=C/C[C@@H]([C@@H](C)O)OC2=O)O[C@@H]1C [fidaxomicin, reference compound]",MIC,[4]; [20],0.03 to 1 µg/mL
"CCCCCCCCCC(=O)N[C@@H](Cc1c[nH]c2ccccc12)C(=O)N[C@H](CC(N)=O)C(=O)N[C@@H](CC(=O)O)C(=O)N[C@@H]1C(=O)NCC(=O)N[C@@H](CCCN)C(=O)N[C@@H](CC(=O)O)C(=O)N[C@H](C)C(=O)N[C@@H](CC(=O)O)C(=O)NCC(=O)N[C@H](CO)C(=O)N[C@@H]([C@H](C)CC(=O)O)C(=O)N[C@@H](CC(=O)c2ccccc2N)C(=O)O[C@@H]1C [daptomycin, reference compound]",MIC50,[1]; Enterococcus faecalis,1 µg/mL
same,MIC90,[1]; Enterococcus faecalis,1 µg/mL
same,MIC,[1]; Enterococcus faecalis,0.5 to 2 µg/mL
same,MIC50,[2]; Enterococcus faecium,4 µg/mL
same,MIC90,[2]; Enterococcus faecium,4 µg/mL
same,MIC,[2]; Enterococcus faecium,2 to 4 µg/mL
